Target: T1, P2X7 receptor (Homo sapiens, UniProt Q99572)
T1 construct: stably expressing the full length P2X7 receptor; expressed in transfected cells
T1 sequence (Q99572 1-595): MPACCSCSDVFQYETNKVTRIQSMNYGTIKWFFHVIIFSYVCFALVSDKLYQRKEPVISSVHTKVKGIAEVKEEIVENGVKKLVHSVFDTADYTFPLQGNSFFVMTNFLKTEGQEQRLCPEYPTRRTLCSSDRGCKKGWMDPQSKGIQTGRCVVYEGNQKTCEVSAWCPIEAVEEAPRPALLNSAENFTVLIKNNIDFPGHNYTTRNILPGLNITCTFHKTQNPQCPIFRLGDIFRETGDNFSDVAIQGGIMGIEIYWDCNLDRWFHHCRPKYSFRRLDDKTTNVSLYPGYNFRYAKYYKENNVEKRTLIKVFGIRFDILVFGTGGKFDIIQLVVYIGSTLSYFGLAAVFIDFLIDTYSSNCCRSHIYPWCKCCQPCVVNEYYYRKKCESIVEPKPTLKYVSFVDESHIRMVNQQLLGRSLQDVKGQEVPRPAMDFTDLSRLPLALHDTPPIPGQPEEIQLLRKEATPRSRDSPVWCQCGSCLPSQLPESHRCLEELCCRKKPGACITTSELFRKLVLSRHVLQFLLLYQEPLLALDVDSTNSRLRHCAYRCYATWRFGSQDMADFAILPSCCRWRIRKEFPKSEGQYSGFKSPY
Test: Ca++ flux assay (FLIPR) in P2X7-HEK-293 cell line stably expressing the full length P2X7 receptor, Bz-ATP activation
Type: cell-based
Details: P2X7-HEK-293 cells; agonist Bz-ATP; fluorescence as total area over 90 seconds; read-out: P2X7 Ca Flux hu IC50
Outline: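 HEK-293 cells stably expressing full-length P2X7 were loaded with Ca++-sensitive dye for 1 h, with compound added during loading. Cells were stimulated with Bz-ATP on FLIPR. Fluorescence was integrated as total area over 90 s, and IC50 was taken as 50% inhibition of the maximal Ca++ response.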

| SMILES | IC50 [nM] |
| --- | --- |
| Cc1c(-n2ccn3c(S(=O)(=O)Cc4ccccc4-c4ccccc4)nnc3c2=O)cccc1C(F)(F)F [Compound 126] | 15.9 |
| O=c1c2nnc(S(=O)(=O)Cc3ccccc3)n2ccn1-c1cccc(C(F)(F)F)c1Cl [Compound 127, 3-(benzylsulfonyl)-7-(2-chloro-3-(trifluoromethyl)phenyl)-[1,2,4]triazolo[4,3-a]pyrazin-8(7H)-one] | 16.3 |
| Cc1c(Cl)cccc1-n1ccn2c(S(=O)(=O)Cc3ccccc3Br)nnc2c1=O [Compound 128, 3-(2-bromobenzylsulfonyl)-7-(3-chloro-2-methylphenyl)-[1,2,4]triazolo[4,3-a]pyrazin-8(7H)-one] | 16.9 |
| Cc1c(-n2ccn3c(S(=O)(=O)Cc4ccccc4C(C)(C)C)nnc3c2=O)cccc1C(F)(F)F [Compound 129, 3-(2-tert-butylbenzylsulfonyl)-7-(2-methyl-3-(trifluoromethyl)phenyl)-[1,2,4]triazolo[4,3-a]pyrazin-8(7H)-one] | 17 |
| Cc1c(Cl)cccc1-n1ccn2c(S(=O)(=O)Cc3cccc(F)c3Cl)nnc2c1=O [Compound 130, 7-(3-chloro-2-methylphenyl)-3-(2-chloro-3-fluorobenzylsulfonyl)-[1,2,4]triazolo[4,3-a]pyrazin-8(7H)-one] | 17.3 |
| Cc1c(-n2ccn3c(S(=O)(=O)Cc4ccccc4Br)nnc3c2=O)cccc1C(F)(F)F [Compound 131, 3-(2-bromobenzylsulfonyl)-7-(2-methyl-3-(trifluoromethyl)phenyl)-[1,2,4]triazolo[4,3-a]pyrazin-8(7H)-one] | 17.7 |
| Cc1c(-n2ccn3c(S(=O)(=O)Cc4ccc(Cl)s4)nnc3c2=O)cccc1C(F)(F)F [Compound 132, 3-((5-chlorothiophen-2-yl)methylsulfonyl)-7-(2-methyl-3-(trifluoromethyl)phenyl)-[1,2,4]triazolo[4,3-a]pyrazin-8(7H)-one] | 17.9 |
| Cc1c(-n2ccn3c(S(=O)(=O)Cc4ccccc4I)nnc3c2=O)cccc1C(F)(F)F [Compound 133, 3-(2-iodobenzylsulfonyl)-7-(2-methyl-3-(trifluoromethyl)phenyl)-[1,2,4]triazolo[4,3-a]pyrazin-8(7H)-one] | 21.4 |
| Cc1c(Cl)cccc1-n1ccn2c(S(=O)(=O)Cc3ccccc3Cl)nnc2c1=O [Compound 134, 7-(3-chloro-2-methylphenyl)-3-(2-chlorobenzylsulfonyl)-[1,2,4]triazolo[4,3-a]pyrazin-8(7H)-one] | 23.2 |
| [2H]c1c([2H])c([2H])c(CS(=O)(=O)c2nnc3c(=O)n(-c4cccc(C(F)(F)F)c4C)ccn23)c([2H])c1[2H] [Compound 135, deuterated-7-[2-methyl-3-(trifluoromethyl)phenyl]-3-[(phenyl-(d5)-methyl)sulfonyl]-1,2,4-triazolo[4,3-a]pyrazin-8(7H)-one] | 23.3 |
| Cc1c(Cl)cccc1-n1ccn2c(S(=O)(=O)Cc3ccccc3C(C)(C)C)nnc2c1=O [Compound 136, 3-(2-tert-butylbenzylsulfonyl)-7-(3-chloro-2-methylphenyl)-[1,2,4]triazolo[4,3-a]pyrazin-8(7H)-one] | 26.9 |
| Cc1cccc(-c2ccccc2CS(=O)(=O)c2nnc3c(=O)n(-c4cccc(C(F)(F)F)c4C)ccn23)c1 [Compound 137] | 30.4 |
| Cc1c(-n2ccn3c(S(=O)(=O)Cc4ccccc4-c4ccc(F)cc4)nnc3c2=O)cccc1C(F)(F)F [Compound 138, 3-((4′-fluorobiphenyl-2-yl)methylsulfonyl)-7-(2-methyl-3-(trifluoromethyl)phenyl)-[1,2,4]triazolo[4,3-a]pyrazin-8(7H)-one] | 30.8 |
| Cc1c(Cl)cccc1-n1ccn2c(S(=O)(=O)Cc3ccccc3)nnc2c1=O [Compound 139, 3-(benzylsulfonyl)-7-(3-chloro-2-methylphenyl)-[1,2,4]triazolo[4,3-a]pyrazin-8(7H)-one] | 31.7 |
| [2H]c1c([2H])c([2H])c(C([2H])([2H])S(=O)(=O)c2nnc3c(=O)n(-c4cccc(Cl)c4C)ccn23)c([2H])c1[2H] [Compound 140, deuterated-7-(3-chloro-2-methylphenyl)-3-[(phenyl-(d5)methyl-(d2))sulfonyl]-1,2,4-triazolo[4,3-a]pyrazin-8(7H)-one] | 31.8 |
| Cc1ccc(-c2ccccc2CS(=O)(=O)c2nnc3c(=O)n(-c4cccc(C(F)(F)F)c4C)ccn23)s1 [Compound 141] | 37 |
| [2H]c1c([2H])c([2H])c(CS(=O)(=O)c2nnc3c(=O)n(-c4cccc(Cl)c4C)ccn23)c([2H])c1[2H] [Compound 142, deuterated-7-(3-chloro-2-methylphenyl)-3-[(phenyl-(d5)methyl)sulfonyl]-1,2,4-triazolo[4,3-a]pyrazin-8(7H)-one] | 39.5 |

| SMILES | IC50 [nM] |
| --- | --- |
| Cc1c(-n2ccn3c(S(=O)(=O)Cc4ccccc4-c4cccs4)nnc3c2=O)cccc1C(F)(F)F [Compound 143, 7-(2-methyl-3-(trifluoromethyl)phenyl)-3-(2-(thiophen-2-yl)benzylsulfonyl)-[1,2,4]triazolo[4,3-a]pyrazin-8(7H)-one] | 46.2 |
| O=c1c2nnc(S(=O)(=O)C(c3ccccc3)c3ccccc3)n2ccn1-c1cccc(C(F)(F)F)c1Cl [Compound 144, 3-(benzhydrylsulfonyl)-7-(2-chloro-3-(trifluoromethyl)phenyl)-[1,2,4]triazolo[4,3-a]pyrazin-8(7H)-one] | 130 |
| O=c1c2nnc(S(=O)(=O)Cc3cccc4ccccc34)n2ccn1-c1cccc(C(F)(F)F)c1Cl [Compound 145, 7-(2-chloro-3-(trifluoromethyl)phenyl)-3-(naphthalen-1-ylmethylsulfonyl)-[1,2,4]triazolo[4,3-a]pyrazin-8(7H)-one] | 47.9 |
| COc1cccc(-c2ccccc2CS(=O)(=O)c2nnc3c(=O)n(-c4cccc(C(F)(F)F)c4C)ccn23)c1 [Compound 146, 3-((3′-methoxybiphenyl-2-yl)methylsulfonyl)-7-(2-methyl-3-(trifluoromethyl)phenyl)-[1,2,4]triazolo[4,3-a]pyrazin-8(7H)-one] | 47 |
| Cc1c(-n2ccn3c(S(=O)(=O)Cc4cscc4Br)nnc3c2=O)cccc1C(F)(F)F [Compound 147, 3-((4-bromothiophen-3-yl)methylsulfonyl)-7-(2-methyl-3-(trifluoromethyl)phenyl)-[1,2,4]triazolo[4,3-a]pyrazin-8(7H)-one] | 45.8 |
| Cc1c(Cl)cccc1-n1ccn2c(S(=O)(=O)Cc3ccc(F)cc3Cl)nnc2c1=O [Compound 148, 7-(3-chloro-2-methylphenyl)-3-(2-chloro-4-fluorobenzylsulfonyl)-[1,2,4]triazolo[4,3-a]pyrazin-8(7H)-one] | 47 |
| Cc1c(-n2ccn3c(S(=O)(=O)Cc4ccccc4-c4ccccc4)nnc3c2=O)cccc1C(F)(F)F [Compound 149] | 48 |
| Cc1ccc(-c2ccccc2CS(=O)(=O)c2nnc3c(=O)n(-c4cccc(C(F)(F)F)c4C)ccn23)s1 [Compound 150] | 48.9 |
| Cc1c(Cl)cccc1-n1ccn2c(S(=O)(=O)Cc3ccccc3-c3cccs3)nnc2c1=O [Compound 151, 7-(3-chloro-2-methylphenyl)-3-(2-(thiophen-2-yl)benzylsulfonyl)-[1,2,4]triazolo[4,3-a]pyrazin-8(7H)-one] | 50.9 |
| Cc1cccc(-c2ccccc2CS(=O)(=O)c2nnc3c(=O)n(-c4cccc(C(F)(F)F)c4C)ccn23)c1 [Compound 152] | 51 |
| Cc1c(-n2ccn3c(S(=O)(=O)Cc4ccccc4Oc4ccccc4)nnc3c2=O)cccc1C(F)(F)F [Compound 153, 7-(2-methyl-3-(trifluoromethyl)phenyl)-3-(2-phenoxybenzylsulfonyl)-[1,2,4]triazolo[4,3-a]pyrazin-8(7H)-one] | 51.5 |
| Cc1ccc(-c2ccccc2CS(=O)(=O)c2nnc3c(=O)n(-c4cccc(C(F)(F)F)c4C)ccn23)cc1 [Compound 154, 7-(2-methyl-3-(trifluoromethyl)phenyl)-3-((4′-methylbiphenyl-2-yl)methylsulfonyl)-[1,2,4]triazolo[4,3-a]pyrazin-8(7H)-one] | 51.9 |
| Cc1c(Cl)cccc1-n1ccn2c(S(=O)(=O)Cc3ccccc3-c3ccccc3)nnc2c1=O [Compound 155, 3-(biphenyl-2-ylmethylsulfonyl)-7-(3-chloro-2-methylphenyl)-[1,2,4]triazolo[4,3-a]pyrazin-8(7H)-one] | 53.2 |
| Cc1c(Cl)cccc1-n1ccn2c(S(=O)(=O)Cc3cccc(Cl)c3)nnc2c1=O [Compound 156, 7-(3-chloro-2-methylphenyl)-3-(3-chlorobenzylsulfonyl)-[1,2,4]triazolo[4,3-a]pyrazin-8(7H)-one] | 119 |
| Cc1c(Cl)cccc1-n1ccn2c(S(=O)(=O)Cc3ccc(Cl)cc3)nnc2c1=O [Compound 157, 7-(3-chloro-2-methylphenyl)-3-(4-chlorobenzylsulfonyl)-[1,2,4]triazolo[4,3-a]pyrazin-8(7H)-one] | 136 |
| Cc1c(Cl)cccc1-n1ccn2c(S(=O)(=O)Cc3ccccc3N3CCOCC3)nnc2c1=O [Compound 158, 7-(3-chloro-2-methylphenyl)-3-(2-morpholinobenzylsulfonyl)-[1,2,4]triazolo[4,3-a]pyrazin-8(7H)-one] | 189 |

From patent US20130196986A1 (priority 2010, published 2013)
